The text below walks through data of patent publication US10590081B2, “Guanidine compounds and use thereof” (ImmunoMet Therapeutics Inc., priority 2015, dated 2020).

In assay [1] the test system is A549 cells. Briefly: Test for inhibition of OCR and enhancement of ECAR (XF Analyzer). Format: cell-based. The conditions noted are these: 24 hrs treatment, oxygen consumption rate. From the text:
Measurement of Mitochondrial Complex I Inhibition
The electron transfer complex in mitochondria is composed of 5 complexes. The complex I accept electrons from NADH produced from glycolysis and TCA cycle and the electrons move to complex […] and the electron is finally transferred to O2 and water molecule is generated. During the electron transfer, proton gradient is generated and the chemical gradient is a driving source to synthesize ATP at complex V. The mitochondrial inhibition of complex I indirectly assessed by measuring the oxygen consumption rate (OCR) at complex IV. […] The solution outside of cells becomes acidic (lower pH) as lactate is transported to outside of cells. OCR and Extracellular acidification rate (ECAR) are determined by XF Analyzer (Seahorse Biosciences).
A549 cells were purchased from American Type Tissue Culture Collection (CCL-185™) and cultured in RPMI 1640 supplied with 10% fetal bovine serum (FBS) and antibiotic-antimycotic (Lifetech, CA). A549 cells were separated with 0.5% Trypsin-EDTA and 3,000 cells were plated on 1 mg/ml poly-D-lysine (Sigma, P6407) coated XF 96 well […]. A549 cells were allowed to adhere to the wells for 24 hours under the condition of temperature, 37° C. and 5% CO2. The sensor cartridge of XF Analyzer was soaked in 200 μl of Calibrant solution (Seahorse, MA) in a clear 96-well plate at 37° C. for 24 hours. The compounds of the present invention were diluted with RPMI 1640 without FBS, transferred to A549 cells on XF 96 well plate, and incubated further for 23 hours at 37° C. and 5% CO2. After incubation, the compound solution was exchanged with pre-warmed and pH adjusted (pH7.4) XF assay media (Seahorse) supplied with 15 mM D-glucose (Sigma), 15 mM sodium pyruvate (Lifetechnologies, CA) and 4 mM L-glutamine (Lifetechnologies, CA). The compounds of present invention were prepared in XF Assay media and added to the assay plate. The assay plate was equilibrated in XF Analyzer for 1 hour, and the reading were started by sensor cartridge. The cytotoxicity assay was followed using Cyquant (Lifetechnologies, CA) in order to calibrate the inhibition with cytotoxicity of compounds. The concentrations of the compounds were tested at 0, 0.5, 1, 5, 10 and 20 μM and IC50 value was obtained from the inhibited values. That is, from OCR inhibition values at each concentration of the compound, IC50 was calculated according to Prism's dose response curve fitting.
In Table 1, the levels of OCR IC50 are evaluated by the following.
According to the test results of the compounds, the compounds were classified into A, B and C.

In assay [2] the test system is SK-MEL-28 cells. The assay can be described thus: Cytotoxicity in low glucose condition (MTT assay). Format: cell-based. The note with it: 0.75 mM glucose, 72 hours treatment, read-out: SK-MEL-280.75 mM glucose cell viability (IC50 μM). An excerpt: Cytotoxicity Assay in Low Glucose Condition
The inhibition of oxidative phosphorylation (OXPHOS) is not cytotoxic to cells in normal glucose condition, because it is postulated that normal cells have compensatory mechanism under energy stress conditions such as low glucose. However OXPHOS inhibitors show cytotoxic effect on cells in the glucose deprived condition (BirsoyK, 2014). The glucose deprived condition is observed in tumor microenvironment potentially due to poor angiogenesis. Therefore the OXPHOS inhibitors may show anti-cancer effect on cancer cells in low glucose condition that may depict tumor microenvironment.
The compounds of the present invention were evaluated their cytotoxicity in SK-MEL-28, melanoma with 0.75 mM glucose supplement. The cytotoxic effect is compared with the cytotoxicity caused by phenformin. The cytotoxicity in low glucose condition is correlated with inhibition of oxygen consumption in mitochondria.
SK-MEL-28 (HTB-72) is a melanoma cell line obtained from ATCC (MA) and cultured in RPMI 1640 media (Lifetechnologies, CA) with supplement of 10% FBS and antibiotic-antimycotic (Lifetechnologies, CA). RPMI 1640 (−Glucose) was used to prepare low glucose media and 0.75 mM glucose was supplied with D-(+)-glucose solution from Sigma. SK-MEL-28 cells were separated from culture plate using 0.5% trypsin-EDTA and 1,250 cells were plated in 96-well plate with low glucose media. After incubation at 37° C. for 24 hour, 5% CO2, the cells were treated with the compounds of present invention in FBS-free media for 72 hours. The cytotoxicity was measured by the MTT (AMRESCO, OH) assay. NADH-dependent cellular oxidoreductase reduces MTT to its insoluble […] with purple color. The enzyme depends on cell number or energy state of cells. 10 μl of 5 mg/ml MTT solution was added to each well of the assay plate and skip the well for blank. The plate was incubated at 37° C. and 5% CO2 for 2 hours. The MTT solution was removed from each well and 100 μl of DMSO was added. The plate was read by VICTOR X3 Multilabel Counter at the wavelength of 550 nm. In Table 2, the levels of IC50 are evaluated by the following criteria.
According to the concentration of compound for killing the half of cell populations (the levels of IC50), the compounds were classified into A, B and C, when the compounds were treated on SK-MEL-28 cells at 0.75 mM glucose.
For orientation: Formazan colour is commonly taken as a measure of viable cells.

Counter-ions that a name gives are not always drawn. Like-named read-outs stand apart in the source and are kept apart here.

As for `N=C(NCc1ccccc1Br)NC(=N)N1CCC(F)(F)CC1` [Example 40, N—(N-(2-bromobenzyl)carbamimidoyl)-4,4-difluoropiperidine-1-carboximidamide hydrochloride], the IC50 (as a rule, the concentration that inhibits the measured activity by half) in assay [1] (Homo sapiens) was over 4 µM.

`N=C(NC(=N)N1CCSC1)Nc1ccc(SC(F)(F)F)cc1` [Example 14, N—(N-(4-(trifluoromethythio)phenyl)carbamimidoyl)thiazolidine-3-carboximidamide hydrochloride]: the IC50 in assay [1] (Homo sapiens) is 2 to 4 µM; in assay [2] (Homo sapiens, SK-MEL-28, 72 h) it was under 6 µM.

With `N=C(NCc1ccc(Cl)c(Cl)c1)NC(=N)N1CCC(F)(F)CC1` [Example 42, N—(N-(3,4-dichlorobenzyl)carbamimidoyl)-4,4-difluoropiperidine-1-carboximidamide hydrochloride], the concentration for half-maximal inhibition (IC50) in assay [1] (Homo sapiens) was over 4 µM; in assay [2] (Homo sapiens, SK-MEL-28, 72 h) it was 6 to 15 µM.

On to `N=C(NC(=N)N1CCC(F)(F)CC1)Nc1ccccc1Br` [Example 4, N—(N-(2-bromophenyl)carbamimidoyl)-4,4-difluoropiperidine-1-carboximidamide hydrochloride], for which the IC50 in assay [2] (Homo sapiens, SK-MEL-28, 72 h) was over 15 µM.

Consider `N=C(NC(=N)N1CCC(F)(F)CC1)Nc1ccc(OC(F)(F)F)cc1` [Example 17, N—(N-(4-(trifluoromethoxy)phenyl)carbamimidoyl)-4,4-difluoropiperidine-1-carboximidamide acetate], for which the IC50 in assay [1] (Homo sapiens) was in the range of 2 to 4 µM.

As to `N=C(NC(=N)N1CCC(F)(F)C1)Nc1ccc(I)c(Cl)c1` [Example 31, N—(N-(3-chloro-4-iodophenyl)carbamimidoyl)-3,3-difluoropyrrolidine-1-carboximidamide acetate], the IC50 is 2 to 4 µM in assay [1] (Homo sapiens) and 6 to 15 µM in assay [2] (Homo sapiens, SK-MEL-28, 72 h).

Consider `N=C(NC(=N)N1CCC(F)(F)CC1)Nc1ccc(OC(F)(F)F)c(F)c1` [Example 27, N—(N-(3-fluoro-4-(trifluoromethoxy)phenyl)carbamimidoyl)-4,4-fluoropiperidine-1-carboximidamide acetate], for which the IC50 in assay [1] (Homo sapiens) is under 2 µM; in assay [2] (Homo sapiens, SK-MEL-28, 72 h), under 6 µM.

As to `N=C(NC(=N)N1CCC(F)(F)CC1)Nc1ccccc1` [Example 1, N—(N-phenylcarbamimidoyl)-4,4-difluoropiperidine-1-carboximidamide hydrochloride], the IC50 in assay [2] (Homo sapiens, SK-MEL-28, 72 h) is over 15 µM.

On to `N=C(NC(=N)N1CCC(F)(F)CC1)Nc1cccc(Br)c1` [Example 5, N—(N-(3-bromophenyl)carbamimidoyl)-4,4-difluoropiperidine-1-carboximidamide hydrochloride], for which the IC50 in assay [1] (Homo sapiens) was over 4 µM; in assay [2] (Homo sapiens, SK-MEL-28, 72 h), 6 to 15 µM.

For `N=C(NC(=N)N1CCC(F)(F)CC1)Nc1ccc(Cl)c(Cl)c1` [Example 3, N—(N-(3,4-dichlorophenyl)carbamimidoyl)-4,4-difluoropiperidine-1-carboximidamide hydrochloride], the IC50 in assay [1] (Homo sapiens) is over 4 µM; in assay [2] (Homo sapiens, SK-MEL-28, 72 h), under 6 µM.

For the compound `N=C(NC(=N)N1CCC(F)(F)CC1)Nc1ccc(I)c(Cl)c1` [Example 18, N—(N-(3-chloro-4-iodophenyl)carbamimidoyl)-4,4-difluoropiperidine-1-carboximidamide acetate], the IC50 in assay [1] (Homo sapiens) lay within 2 to 4 µM.

On to `N=C(NC(=N)N1CCC(F)(F)C1)Nc1ccc(C(F)(F)F)cc1` [Example 30, N—(N-(4-(trifluoromethyl)phenyl)carbamimidoyl)-3,3-difluoropyrrolidine-1-carboximidamide acetate], for which the IC50 in assay [1] (Homo sapiens) lay within 2 to 4 µM; in assay [2] (Homo sapiens, SK-MEL-28, 72 h) it was 6 to 15 µM.

`N=C(NC(=N)N1CCC(F)(F)CC1)Nc1ccc(SC(F)(F)F)cc1` [Example 9, N—(N-(4-(trifluoromethythio)phenyl)carbamimidoyl)-4,4-difluoro piperidine-1-carboximidamide hydrochloride]: the IC50 is 2 to 4 µM in assay [1] (Homo sapiens) and under 6 µM in assay [2] (Homo sapiens, SK-MEL-28, 72 h).

Take `N=C(NC(=N)N1CCC(F)(F)C1)Nc1ccc(OC(F)(F)F)c(Br)c1` [Example 39, N—(N-(3-bromo-4-(trifluoromethoxy)phenyl)carbamimidoyl)-3,3-difluoropyrrolidine-1-carboximidamide acetate]: the half-maximal inhibitory concentration (IC50) in assay [1] (Homo sapiens) was in the range of 2 to 4 µM.

With `N=C(NC(=N)N1CCC(F)(F)CC1)Nc1ccc2c(c1)CCCC2` [Example 2, N—(N-(5,6,7,8-teterhydronaphthalene-2-yl)carbamimidoyl)-4,4-difluoro piperidine-1-carboximidamide hydrochloride], the IC50 was over 4 µM in assay [1] (Homo sapiens) and 6 to 15 µM in assay [2] (Homo sapiens, SK-MEL-28, 72 h).

With `N=C(NC(=N)N1CCC(F)(F)CC1)Nc1ccc(Br)cc1` [Example 6, N—(N-(4-bromophenyl)carbamimidoyl)-4,4-difluoropiperidine-1-carboximidamide hydrochloride], the IC50 was over 4 µM in assay [1] (Homo sapiens) and 6 to 15 µM in assay [2] (Homo sapiens, SK-MEL-28, 72 h).

As to `CSc1ccc(NC(=N)NC(=N)N2CCC(F)(F)CC2)cc1` [Example 8, N—(N-(4-(methythio)phenyl)carbamimidoyl)-4,4-difluoropiperidine-1-carboximidamide hydrochloride], the IC50 was over 4 µM in assay [1] (Homo sapiens) and 6 to 15 µM in assay [2] (Homo sapiens, SK-MEL-28, 72 h).

Take `N=C(NC(=N)N1CCC(F)(F)CC1)Nc1cccc(Oc2ccccc2)c1` [Example 13, N—(N-(3-phenoxyphenyl)carbamimidoyl)-4,4-difluoropiperidine-1-carboximidamide hydrochloride]: the IC50 in assay [1] (Homo sapiens) was 2 to 4 µM; in assay [2] (Homo sapiens, SK-MEL-28, 72 h), under 6 µM.

Take “N—(N-(4-(trifluoromethythio)phenyl)carbamimidoyl)-3,3-difluoropyrrolidine-1-carboximidamide acetate [Example 32]”: the IC50 in assay [1] is 2 to 4 µM; in assay [2] it was under 6 µM.

On to `N=C(NC(=N)N1CCC(F)(F)CC1)Nc1ccc(I)c(Br)c1` [Example 22, N—(N-(3-bromo-4-iodophenyl)carbamimidoyl)-4,4-difluoropiperidine-1-carboximidamide acetate], for which the IC50 in assay [1] (Homo sapiens) was 2 to 4 µM; in assay [2] (Homo sapiens, SK-MEL-28, 72 h), under 6 µM.

For `N=C(NC(=N)N1CCC(F)(F)CC1)Nc1ccc(Br)c(Br)c1` [Example 26, N—(N-(3,4-dibromophenyl)carbamimidoyl)-4,4-difluoropiperidine-1-carboximidamide acetate], the half-inhibitory concentration (IC50) in assay [1] (Homo sapiens) is 2 to 4 µM; in assay [2] (Homo sapiens, SK-MEL-28, 72 h) it was 6 to 15 µM.

For `N=C(NC(=N)N1CCC(F)(F)CC1)Nc1ccc(C(F)(F)F)cc1` [Example 21, N—(N-(4-(trifluoromethyl)phenyl)carbamimidoyl)-4,4-difluoropiperidine-1-carboximidamide acetate], the IC50 was 2 to 4 µM in assay [1] (Homo sapiens) and under 6 µM in assay [2] (Homo sapiens, SK-MEL-28, 72 h).

Regarding `N=C(NCc1ccc(Br)cc1)NC(=N)N1CCC(F)(F)CC1` [Example 55, N—(N-(4-bromobenzyl)carbamimidoyl)-4,4-difluoropiperidine-1-carboximidamide acetate], in assay [1] (Homo sapiens), the IC50 is over 4 µM.
